In the test the target is T1, hGIP-R (Homo sapiens, UniProt P48546).
T1 construct: expressed in transfected cells; host or cells: HEK-293 clonal cell lines
T1 sequence (P48546 22-466): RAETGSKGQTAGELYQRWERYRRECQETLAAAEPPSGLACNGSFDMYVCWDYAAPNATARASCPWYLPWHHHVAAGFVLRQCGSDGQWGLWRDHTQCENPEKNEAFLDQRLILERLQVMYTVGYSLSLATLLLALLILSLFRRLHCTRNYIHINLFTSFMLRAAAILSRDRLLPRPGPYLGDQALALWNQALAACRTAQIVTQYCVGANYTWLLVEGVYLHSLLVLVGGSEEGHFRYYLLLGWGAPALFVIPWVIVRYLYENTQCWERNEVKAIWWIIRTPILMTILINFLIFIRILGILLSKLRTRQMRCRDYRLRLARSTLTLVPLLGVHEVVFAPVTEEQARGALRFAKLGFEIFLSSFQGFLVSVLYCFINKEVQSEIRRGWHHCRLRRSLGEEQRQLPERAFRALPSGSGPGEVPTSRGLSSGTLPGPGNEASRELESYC
Description: Functional hGIP-R Assay (cAMP formation, HTRF). It is filed as cell-based. Conditions: for Emax: cAMP efficacy, percent of maximal response to GIP(1-42)OH, 37° C., 0.1% bovine casein, arithmetic mean ± SEM; for EC50: cAMP potency, HEK-293 cells expressing hGIP-R, incubated at 37° C. in the presence of 0.1% bovine casein, geometric mean, read-out: Human GIP-R EC50, nM (SEM, n). The protocol:
Functional activity was determined using CAMP formation in HEK-293 clonal cell lines expressing hGIP-R. hGIP-R receptor expressing cells were treated with compound (20 point concentration-response curve in DMSO, 2-fold Labcyte Echo direct dilution, 384 well plate Corning Cat #3570) in DMEM (Gibco Cat #31053) supplemented with 1× GlutaMAX™ (Gibco Cat #35050), 0.1% bovine casein (Sigma C4765-10ML), 250 μM IBMX (3-Isobutyl-1-methylxanthine, Acros Cat #228420010) and 20 mM HEPES (Gibco Cat #15630) in a 20 μL assay volume (final DMSO concentration was 1%). After a 30 min incubation at 37° C., the resulting increase in intracellular cAMP was quantitatively determined using the Revvity CAMP Dynamic 2 HTRF Assay Kit (62AM4PEJ). Briefly, cAMP levels within the cell were detected by adding the cAMP-d2 conjugate in cell lysis buffer (10 μL) followed by the antibody anti-cAMP-Eu^3+-Cryptate, also in cell lysis buffer (10 μL). The resulting competitive assay was incubated for at least 60 min at RT, then detected using a BMG Labtech PHERAstar FSX instrument with excitation at 320 nm and emission at 665 nm and 620 nm. PHERAstar units (emission at 665 nm/620 nm*10,000) are inversely proportional to the amount of cAMP present and were converted to nM cAMP per well using a CAMP standard curve. The amount of cAMP generated (nM) in each well was converted to a percent of the maximal response observed with human GIP (1-42) OH. A relative EC50 value and percent top (Emax) were derived by non-linear regression analysis using the percent maximal response vs. the concentration of compound added, fitted to a four-parameter logistic equation.
On the technique in general: Cyclic AMP is a second messenger, typically raised through Gs and lowered through Gi signalling.

The Emax is the greatest response seen or fitted, relative to the assay's reference. The term EC50 denotes the midpoint of the concentration-response curve. As to `Cn1cc2cc(-c3ccc([C@H]4C[C@@H]4C(=O)N[C@H](Cc4cnn(C(F)F)c4)C(=O)NC(C)(C)Cn4nc(C(F)(F)F)cc4Br)cc3)cnc2n1` [Example 12, (1S,2S)-N-((R)-1-((1-(5-bromo-3-(trifluoromethyl)-1H-pyrazol-1-yl)-2-methylpropan-2-yl)amino)-3-(1-(difluoromethyl)-1H-pyrazol-4-yl)-1-oxopropan-2-yl)-2-(4-(2-methyl-2H-pyrazolo[3,4-b]pyridin-5-yl)phenyl) cyclopropane-1-carboxamide], the Emax is 106 ± 5.38% and the EC50 amounted to 104 nM.

As to `Cn1cc(C[C@@H](NC(=O)[C@H]2C[C@@H]2c2ccc(-c3cnc4nn(C)cc4c3)cc2)C(=O)NC(C)(C)Cn2nc(C(F)(F)F)cc2-c2n[nH]cc2F)cn1` [Example 14, (1S,2S)-N-((R)-1-((1-(4-Fluoro-5′-(trifluoromethyl)-1H,2′H-[3,3′-bipyrazol]-2′-yl)-2-methylpropan-2-yl)amino)-3-(1-methyl-1H-pyrazol-4-yl)-1-oxopropan-2-yl)-2-(4-(2-methyl-2H-pyrazolo[3,4-b]pyridin-5-yl)phenyl) cyclopropane-1-carboxamide], the Emax is 103 ± 10.2% and the EC50 was 87.7 nM.

As for `Cc1ncc(-c2cc(C(F)(F)F)nn2CC(C)(C)NC(=O)[C@@H](Cc2cnn(C)c2)NC(=O)[C@H]2C[C@@H]2c2ccc(-c3cnc4nn(C)cc4c3)cc2)[nH]1` [Example 15, (1S,2S)-N-((R)-1-((2-Methyl-1-(5-(2-methyl-1H-imidazol-5-yl)-3-(trifluoromethyl)-1H-pyrazol-1-yl)propan-2-yl)amino)-3-(1-methyl-1H-pyrazol-4-yl)-1-oxopropan-2-yl)-2-(4-(2-methyl-2H-pyrazolo[3,4-b]pyridin-5-yl)phenyl) cyclopropane-1-carboxamide], the Emax is 117 ± 6.6% and the EC50 came out at 24.6 nM.

Regarding `Cn1cc(C[C@@H](NC(=O)[C@H]2C[C@@H]2c2ccc(-c3cnc4nn(C)cc4c3)cc2)C(=O)NC(C)(C)Cn2nc(C(F)(F)F)cc2-c2n[nH]c(=O)s2)cn1` [Example 16, (1S,2S)-N-((R)-1-((2-Methyl-1-(5-(5-oxo-4,5-dihydro-1,3,4-thiadiazol-2-yl)-3-(trifluoromethyl)-1H-pyrazol-1-yl)propan-2-yl)amino)-3-(1-methyl-1H-pyrazol-4-yl)-1-oxopropan-2-yl)-2-(4-(2-methyl-2H-pyrazolo[3,4-b]pyridin-5-yl)phenyl) cyclopropane-1-carboxamide], the Emax came to 104 ± 4.17% and the EC50 came to 36 nM.

In the case of `Cn1cc(C[C@@H](NC(=O)[C@H]2C[C@@H]2c2ccc(-c3cnc4nn(C)cc4c3)cc2)C(=O)NC(C)(C)Cn2nc(C(F)(F)F)cc2-c2ncsn2)cn1` [Example 17, (1S,2S)-N-((R)-1-((1-(5-(1,2,4-Thiadiazol-3-yl)-3-(trifluoromethyl)-1H-pyrazol-1-yl)-2-methylpropan-2-yl)amino)-3-(1-methyl-1H-pyrazol-4-yl)-1-oxopropan-2-yl)-2-(4-(2-methyl-2H-pyrazolo [3,4-b]pyridin-5-yl)phenyl) cyclopropane-1-carboxamide], the maximum response (Emax) was 129 ± 11.4% and the EC50 worked out at 83.5 nM.

On to `Cn1cc(C[C@@H](NC(=O)[C@H]2C[C@@H]2c2ccc(-c3cnc4nn(C)cc4c3)cc2)C(=O)NC(C)(C)Cn2nc(C(F)(F)F)cc2-c2ccnc(C(C)(C)O)c2)cn1` [Example 18, (1S,2S)-N-((R)-1-((1-(5-(2-(2-Hydroxypropan-2-yl)pyridin-4-yl)-3-(trifluoromethyl)-1H-pyrazol-1-yl)-2-methylpropan-2-yl)amino)-3-(1-methyl-1H-pyrazol-4-yl)-1-oxopropan-2-yl)-2-(4-(2-methyl-2H-pyrazolo [3,4-b]pyridin-5-yl)phenyl) cyclopropane-1-carboxamide], for which the Emax turned out to be 116 ± 13% and the EC50 came to 12 nM.

Regarding `Cn1cc(C[C@@H](NC(=O)[C@H]2C[C@@H]2c2ccc(-c3cnc4nn(C)cc4c3)cc2)C(=O)NC(C)(C)Cn2nc(C(F)(F)F)cc2-c2ccc(=O)n(C)c2)cn1` [Example 19, (1S,2S)-N-((R)-1-((2-Methyl-1-(5-(1-methyl-6-oxo-1,6-dihydropyridin-3-yl)-3-(trifluoromethyl)-1H-pyrazol-1-yl)propan-2-yl)amino)-3-(1-methyl-1H-pyrazol-4-yl)-1-oxopropan-2-yl)-2-(4-(2-methyl-2H-pyrazolo[3,4-b]pyridin-5-yl)phenyl) cyclopropane-1-carboxamide], the Emax amounted to 123 ± 1.72% and the EC50 came to 66.9 nM.

Turning to `Cn1cc(C[C@@H](NC(=O)[C@H]2C[C@@H]2c2ccc(-c3cnc4nn(C)cc4c3)cc2)C(=O)NC(C)(C)Cn2nc(C(F)(F)F)cc2-n2ccccc2=O)cn1` [Example 20, (1S,2S)-N-((R)-1-((2-Methyl-1-(5-(2-oxopyridin-1(2H)-yl)-3-(trifluoromethyl)-1H-pyrazol-1-yl)propan-2-yl)amino)-3-(1-methyl-1H-pyrazol-4-yl)-1-oxopropan-2-yl)-2-(4-(2-methyl-2H-pyrazolo[3,4-b]pyridin-5-yl)phenyl) cyclopropane-1-carboxamide], the Emax was determined as 126 ± 2.39% and the EC50 was 79.7 nM.

With `Cn1cc(C[C@@H](NC(=O)[C@H]2C[C@@H]2c2ccc(-c3cnc4nn(C)cc4c3)cc2)C(=O)NC(C)(C)Cn2nc(C(F)(F)F)cc2C2CC2)cn1` [Example 21, (1S,2S)-N-((R)-1-((1-(5-Cyclopropyl-3-(trifluoromethyl)-1H-pyrazol-1-yl)-2-methylpropan-2-yl)amino)-3-(1-methyl-1H-pyrazol-4-yl)-1-oxopropan-2-yl)-2-(4-(2-methyl-2H-pyrazolo [3,4-b]pyridin-5-yl)phenyl) cyclopropane-1-carboxamide], the Emax was determined as 102 ± 1.71% and the EC50 amounted to 63.4 nM.

As for `Cn1cc(C[C@@H](NC(=O)[C@H]2C[C@@H]2c2ccc(-c3cnc4nn(C)cc4c3)nc2C(F)(F)F)C(=O)NC(C)(C)Cn2cc(C(F)(F)F)cn2)cn1` [Example 22, (1S,2S)-N-((R)-1-((2-Methyl-1-(4-(trifluoromethyl)-1H-pyrazol-1-yl)propan-2-yl)amino)-3-(1-methyl-1H-pyrazol-4-yl)-1-oxopropan-2-yl)-2-(6-(2-methyl-2H-pyrazolo[3,4-b]pyridin-5-yl)-2-(trifluoromethyl)pyridin-3-yl)cyclopropane-1-carboxamide], the Emax was determined as 109 ± 11.6% and the EC50 stood at 61.3 nM.

`Cn1cc(C[C@@H](NC(=O)[C@H]2C[C@@H]2c2ccc(-c3cnc4nc(C(F)(F)F)cn4c3)cc2)C(=O)NC(C)(C)Cn2nc(C(F)(F)F)cc2-n2ccnn2)cn1` [Example 23, (1S,2S)-N-((R)-1-((1-(5-(1H-1,2,3-Triazol-1-yl)-3-(trifluoromethyl)-1H-pyrazol-1-yl)-2-methylpropan-2-yl)amino)-3-(1-methyl-1H-pyrazol-4-yl)-1-oxopropan-2-yl)-2-(4-(2-(trifluoromethyl)imidazo [1,2-a]pyrimidin-6-yl)phenyl) cyclopropane-1-carboxamide]: the Emax stood at 111 ± 11.6% and the EC50 was 44.4 nM.

For the origin of these results see patent publication US20260108546A1 (ELI LILLY AND COMPANY, priority 2024, published 2026).
